Experimental findings from patent US9376449B2, “Indole carboxamide derivative” (Astellas Pharma Inc., priority 2012, dated 2016) are described below.

What is called Emax is the greatest response seen or fitted, relative to the assay's reference. A word on the EC50: it is the concentration that produces a half-maximal response. Read a high EC50 as a need for much substance.

One series has as its target T1, human MT2 receptor (Homo sapiens, UniProt P49286).
T1 sequence (P49286 1-362): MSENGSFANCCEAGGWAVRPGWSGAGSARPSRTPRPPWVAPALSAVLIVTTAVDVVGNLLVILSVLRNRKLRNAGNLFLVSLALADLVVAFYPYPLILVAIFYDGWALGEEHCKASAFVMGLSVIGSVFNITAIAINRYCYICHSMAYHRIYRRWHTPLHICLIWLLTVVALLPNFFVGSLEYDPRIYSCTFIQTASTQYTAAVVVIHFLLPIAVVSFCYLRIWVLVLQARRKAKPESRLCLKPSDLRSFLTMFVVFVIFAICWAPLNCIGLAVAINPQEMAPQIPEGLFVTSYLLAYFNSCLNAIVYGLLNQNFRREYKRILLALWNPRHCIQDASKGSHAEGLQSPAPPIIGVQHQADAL
The experiment in a line: Activation of human MT2 receptor in receptor-expressing HEK293 cells (intracellular Ca2+, FLIPR). Format: cell-based. Conditions: for Emax: HEK293, maximum reaction by ramelteon taken as 100%, solvent only 0%; for EC50: HEK293 cells stably expressing human MT2 and Gq/i chimeric G-protein, intracellular Ca2+ by FLIPR. On the procedure:
(1) Isolation of Human MT1 and MT2 Receptor and Construction of Expression Vector
A human MT1 receptor gene (GenBank Accession No.: NM_005958.3) and a human MT2 receptor gene (GenBank Accession No.: NM_005959.3) were each introduced into an expression vector pCDNA3.1/Zeo (Invitrogen, Inc.).
(2) Construction of Cells Stably Expressing Human MT1 and Human MT2 Receptor
The introduction was carried out according to the attached instructions, using a Lipofectoamine (registered trademark) 2000 Reagent (Invitrogen, Inc.). Zeocin and hygromycin were used as a resistant drug, and the cell was incubated for 15 days at 0.02 mg/mL and 0.05 mg/mL, respectively, thereby acquiring drug-resistant clones.
(3) Measurement of Intracellular Ca^2+ Concentration by FLIPR (Registered Trademark)
The respective stably expressing cells were dispensed into 96-well poly-D-lysine-coated plates (Falcon Co.) to 40,000 cells/well the day before the experiment, and incubated overnight in a DMEM (Invitrogen, Inc.) medium including 10% FBS at 37° C. and 5% CO2. The medium was replaced with a loading buffer (washing solution (Hank's balanced salt solution (HBSS), 20 mM HEPES-NaOH, 2.5 mM probenecid) including Fluo-4AM (Dojindo Co.) at 4 μM), and incubated for 1 hour at 37° C. and 5% CO2. Thereafter, the cells were washed with a plate washer (ELx405, BIO-TEK Instrument, Inc.) set with the washing solution, and set in an intracellular Ca^2+ concentration measuring systems (FLIPR (registered trademark), Molecular Device Co.). The test compound was dissolved in the washing solution in advance, diluted to a final concentration of −12 to −5 log M, set in a FLIPR (registered trademark) device together with the cells, and added to the cells in the device. At this time, a change in the intracellular Ca^2+ concentrations was measured.
Ex represents Example No. of the test compound.

Series [1] concerns sleep steps of electroencephalogram. The series can be described thus: Measurement test of electroencephalogram in rat (sleep-awake cycle). Type of series: in vivo. Conditions: for sleep action: rat electroencephalogram, 0.1, 1 and 10 mg/kg intraperitoneally; for change in the occupancy in the respective sleep steps of electroencephalogram: any of the doses 0.1, 1 and 10 mg/kg intraperitoneally. On the procedure: Test Example 5 Measurement Test of Electroencephalogram in Rat
In order to accustom the animals to operations during the experiment, handling was carried out for about 1 minute for one example once a day from the next day of the animal acquisition to the day before the administration.
(2) Method for Preparing Electroencephalogram Electrode-Implanted Specimen
After the completion of a quarantine period, the animals showing no abnormal health condition were subjected to an electroencephalogram electrode chronic implantation surgery with reference to brain atlas of Pellegrino et al. Under anesthesia with pentobarbital sodium (45 mg/kg, i.p.), the rat was calibrated in a brain stereotaxic apparatus. In the frontal cortex, a monopolar silver ball electrode having a diameter of the tip of about 1 mm was placed on a hard film of the brain. Into the hippocampus, a laminated bipolar electrodes made of stainless steel was stuck. The reference electrode was screwed around the olfactory brain. Further, as for the electromyogram measurement, the lead wire was implanted in the both electrodes about 1 cm between the electrodes in the neck portion. The other end was exposed to the head portion subcutaneously. The electrodes and the lead wires were subjected to soldering with connector sockets and fixed to the skull with a dental resin or the like.
(3) Sorting and Grouping of Animals
It was confirmed that twenty five rat examples which had been subjected to an electroencephalogram electrode chronic implantation surgery were recovered from the invasion of the surgery, and stable electroencephalogram were obtained therefrom. The weights of the animals were measured after 6 days from the surgery using an electronic scale balance the day before the first administration, and twenty rats were chosen in the descending order and distributed to perform administration. The administration order for the test materials was determined by a stratified random allocation method using a random number function of a spreadsheet software Excel (Microsoft Corporation).
The rats were accommodated in a measurement cage under rat feeding and water supply on the morning of the day of administration, and accustomed to the measurement environment. After measuring the weight using an electronic scale balance, a lead wire and a connector socket were connected 30 minutes or more before the start of the electroencephalogram measurement, and the rat was accustomed in the measurement state under no anesthesia and no custody. The test compounds (solvent, 0.1 mg/kg, 1 mg/kg, and 10 mg/kg) were intraperitoneally administered to the rats and the electroencephalogram was measured continuously until 6 hours after the administration.
The frequency of brain wave were acquired by applying electrical signals of electroencephalogram and of electromyogram an electroencephalogram system and using an electroencephalogram frequency analysis program of a personal computer from the electroencephalograph system. In addition, the image signals of the electroencephalogram waveform were applied to an EEG video system and recorded on a DVD recorder. The behavior observation was carried out through a video camera at the same time as the electroencephalogram measurement and the images were also recorded with the DVD recorder.
(i) Spontaneous Electroencephalogram
The presence or absence of abnormality in the electroencephalogram waveform in up to 6 hours from immediately after the administration, to each animal, respectively, was observed.
The analysis of a sleep-awake cycle was visually carried out using a sleep stage display-supporting program based on the electroencephalogram waveforms acquired with an electroencephalogram frequency analysis program. […]

In another series the test system is 3T3. The series can be described thus: In vitro 3T3 NRU phototoxicity test. Type of series: cell-based. On the procedure: Test Example 6 Drug Pharmacokinetic Test, Safety Pharmacology Test, and Toxicity Test
Using some Example compounds of the present invention, a drug Pharmacokinetic test, a safety pharmacology test, and a toxicity test were carried out.
(iii) For the toxicity test, for example, an in vitro phototoxicity test was carried out. The evaluation of the in vitro phototoxicity test was carried out in accordance with Guidance for industry photosafety testing, Center for Drug Evaluation and Research Food and Drug Administration, 2003, which is a guideline of FDA (U.S. Food and Drug Administration), and Note for guidance on photosafety testing (CPMP/SWP/398/01, 2002) which is a guideline of EMA (European Medicines Agency), and the method described in OECD guideline for testing of chemicals 432: In vitro 3T3 NRU phototoxicity test, 2004, which is a test method described in the report of OECD.

Turning to `CNC(=O)c1[nH]c2ccc(OC)cc2c1CCNC(=O)C(F)F` [Ex 2, 3-{2-[(difluoroacetyl)amino]ethyl}-5-methoxy-N-methyl-1H-indole-2-carboxamide], on human MT2 receptor, the Emax stood at 109% and the EC50 came to 28 nM. For the same compound, the sleep action entry in series [1] is recorded as “there was no sleep action”. In addition, in series [1] (rat), the “change in the occupancy in the respective sleep steps of electroencephalogram” value was “no change in the occupancy in the respective sleep steps of electroencephalogram could not be seen”. Besides, in the series with 3T3, the phototoxicity action entry is recorded as “no phototoxicity action”.

Turning to `CNC(=O)c1[nH]c2cc(F)c(OC)cc2c1CCNC(C)=O` [Ex 17], on human MT2 receptor, the Emax is 94% and the half-maximal effective concentration (EC50) was found to be 58 nM. The sleep action entry in series [1] is given as “there was no sleep action”. Moreover, the “change in the occupancy in the respective sleep steps of electroencephalogram” value in series [1] (rat) is listed as “no change in the occupancy in the respective sleep steps of electroencephalogram could not be seen”. Moreover, the phototoxicity action entry in the series on 3T3 is listed as “no phototoxicity action”.

For `CCC(=O)NCC[C@@H]1CCc2ccc3c(c21)CCO3` [Ramelteon, reference compound], on human MT2 receptor, the Emax was determined as 100% and the 50% effective concentration (EC50) came out at 1.1 nM. In addition, the sleep action result in series [1] was “there is a sleep action”. Besides, the “occupancy of the sleep step of electroencephalogram” value in series [1] (rat, 0.1 mg/kg intraperitoneally, up to 6 hours) is “tendency that the occupancy of the sleep step of electroencephalogram from a dose of 0.1 mg/kg increases”. In addition, the “occupancy of the respective sleep step” value in series [1] (rat, 1 mg/kg intraperitoneally, up to 6 hours) is recorded as “significantly increases”.
